The target in this experiment is PRMT5/MEP50 (Homo sapiens (Human), UniProt O14744). Description: PRMT5 Biochemical Assay (PRMT5/MEP50 enzyme assay on peptide substrate, 3H-SAM Flashplate). The note with it: PRMT5/MEP50 biochemical assay; read-out: Biochemical IC50. From the text: S-adenosylmethionine (SAM), S-adenosylhomocysteine (SAH), bicine, KCl, Tween20, dimethylsulfoxide (DMSO), bovine skin gelatin (BSG), and Tris(2-carboxyethyl)phosphine hydrochloride solution (TCEP) were purchased from Sigma-Aldrich at the highest level of purity possible. ^3H-SAM was purchase from American Radiolabeled Chemicals with a specific activity of 80 Ci/mmol. 384-well streptavidin Flashplates were purchased from PerkinElmer.
Chain of PRMT5/MEP50 (O14744 other isoform, or with tags, fused parts or gaps): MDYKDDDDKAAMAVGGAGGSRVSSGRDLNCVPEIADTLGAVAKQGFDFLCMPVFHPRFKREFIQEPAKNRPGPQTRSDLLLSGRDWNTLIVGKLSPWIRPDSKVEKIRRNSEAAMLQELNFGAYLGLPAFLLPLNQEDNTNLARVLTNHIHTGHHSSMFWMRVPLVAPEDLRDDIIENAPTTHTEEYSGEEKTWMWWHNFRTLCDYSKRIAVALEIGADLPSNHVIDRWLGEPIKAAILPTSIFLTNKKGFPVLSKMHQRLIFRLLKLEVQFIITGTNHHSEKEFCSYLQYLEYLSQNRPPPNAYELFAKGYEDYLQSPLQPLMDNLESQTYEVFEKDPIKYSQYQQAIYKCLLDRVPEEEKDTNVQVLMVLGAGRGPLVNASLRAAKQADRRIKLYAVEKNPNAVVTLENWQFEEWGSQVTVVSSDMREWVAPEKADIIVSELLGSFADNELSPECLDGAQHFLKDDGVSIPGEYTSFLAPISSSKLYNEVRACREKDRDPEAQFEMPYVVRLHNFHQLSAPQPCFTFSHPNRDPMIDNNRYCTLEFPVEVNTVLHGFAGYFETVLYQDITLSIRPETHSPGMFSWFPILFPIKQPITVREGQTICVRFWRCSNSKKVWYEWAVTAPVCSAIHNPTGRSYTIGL
Chain of PRMT5/MEP50 (Q9BQA1 other isoform, or with tags, fused parts or gaps partner): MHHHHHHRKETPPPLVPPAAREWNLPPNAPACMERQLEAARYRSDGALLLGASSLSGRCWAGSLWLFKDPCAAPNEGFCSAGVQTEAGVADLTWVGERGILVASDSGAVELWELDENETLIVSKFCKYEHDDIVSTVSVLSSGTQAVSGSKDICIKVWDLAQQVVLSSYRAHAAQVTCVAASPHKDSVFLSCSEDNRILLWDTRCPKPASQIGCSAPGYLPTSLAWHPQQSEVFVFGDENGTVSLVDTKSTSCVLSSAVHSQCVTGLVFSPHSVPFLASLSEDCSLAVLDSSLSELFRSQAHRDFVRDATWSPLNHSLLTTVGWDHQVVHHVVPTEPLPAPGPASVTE
Peptide representative of human histone H4 residues 1-15 was synthesized with a C-terminal linker-affinity tag motif and a C-terminal amide cap by 21st Century Biochemicals. […] The sequence was Ac-[…][K-Biot]amide (SEQ ID NO.:3).
Full-length human MEP50 (NM_024102) clone was amplified from a human testis cDNA library incorporating a 5′ sequence encoding a 6-histidine tag (MHHHHHH) (SEQ ID NO.:5) fused directly to Arg 2 of MEP50. The amplified genes were subcloned into pENTR/D/TEV (Life Technologies) and subsequently transferred by Gateway™ attL×attR recombination to pDEST8 baculvirus expression vector (Life Technologies).
Recombinant baculovirus and Baculovirus-Infected Insect Cells (BIIC) were generated according to Bac-to-Bac kit instructions (Life Technologies) and Wasilko, 2006, respectively. Protein over-expression was accomplished by infecting exponentially growing Spodoptera frugiperda (SF9) cell culture at 1.2×10^6 cell/ml with a 5000 fold dilution of BIIC stock. Infections were carried out at 27° C. for 72 hours, harvested by centrifugation, and stored at −80° C. for purification.
Flag-PRMT5/6His-MeP50 was eluted with 300 mM Imidazole in the same buffer. […] Reference: Wasilko, D. J. and S. E. Lee: “TIPS: titerless infected-cells preservation and scale-up” Bioprocess J., 5 (2006), pp. 29-32.
General Procedure for PRMT5/MEP50 Enzyme Assays on Peptide Substrates.
The assays were all performed in a buffer consisting of 20 mM Bicine (pH=7.6), 1 mM TCEP, 0.005% BSG, and 0.002% Tween20, prepared on the day of use. Compounds in 100% DMSO (1 ul) were spotted into a polypropylene 384-well V-bottom plates (Greiner) using a Platemate Plus outfitted with a 384-channel head (Thermo Scientific). DMSO (1 ul) was added to Columns 11, 12, 23, 24, rows A-H for the maximum signal control and 1 ul of SAH, a known product and inhibitor of PRMT5/MEP50, was added to columns 11, 12, 23, 24, rows I-P for the minimum signal control. A cocktail (40 ul) containing the PRMT5/MEP50 enzyme and the peptide was added by Multidrop Combi (Thermo-Fisher). The compounds were allowed to incubate with PRMT5/MEP50 for 30 min at 25 degrees Celsius, then a cocktail (10 ul) containing ^3H-SAM was added to initiate the reaction (final volume=51 ul). The final concentrations of the components were as follows: PRMT5/MEP50 was 4 nM, ^3H-SAM was 75 nM, peptide was 40 nM, SAH in the minimum signal control wells was 100 uM, and the DMSO concentration was 1%. The assays were stopped by the addition of non-radioactive SAM (10 ul) to a final concentration of 600 uM, which dilutes the ^3H-SAM to a level where its incorporation into the peptide substrate is no longer detectable. 50 ul of the reaction in the 384-well polypropylene plate was then transferred to a 384-well Flashplate and the biotinylated peptides were allowed to bind to the streptavidin surface for at least 1 hour before being washed three times with 0.1% Tween20 in a Biotek ELx405 plate washer. The plates were then read in a PerkinElmer TopCount plate reader to measure the quantity of ^3H-labeled peptide bound to the Flashplate surface, measured as disintegrations per minute (dpm) or alternatively, referred to as counts per minute (cpm).
[formula] Where dpm=disintegrations per minute, cmpd=signal in assay well, and min and max are the respective minimum and maximum signal controls.
[formula] Where top and bottom are the normally allowed to float, but may be fixed at 100 or 0 respectively in a 3-parameter fit.
With `Cc1c(NC2CCOCC2)cccc1C(=O)NCC(O)CN1CCc2ccccc2C1` (stereo not shown) [Compound 40, N-(3-(3,4-dihydroisoquinolin-2(1H)-yl)-2-hydroxypropyl)-2-methyl-3-((tetrahydro-2H-pyran-4-yl)amino)benzamide], the IC50 is under 100 nM. As for `CN1CCC(Nc2ccc(C(=O)NCC(O)CN3CCc4ccccc4C3)cc2)CC1` (stereo not shown) [Compound 139], the IC50 was under 100 nM. Regarding `COCCNc1cccc(C(=O)NCC(O)CN2CCc3ccccc3C2)c1` (stereo not shown) [Compound 72], the half-inhibitory concentration (IC50) was 101 to 1000 nM. With `CS(=O)(=O)N1CCC(Oc2cncc(C(=O)NC[C@H](O)CN3CCc4ccccc4C3)c2)CC1` [Compound 290], the IC50 is under 100 nM. `CN(CC(N)=O)Cc1cccc(C(=O)NCC(O)CN2CCc3ccccc3C2)c1` (stereo not shown) [Compound 195]: the IC50 is under 100 nM. As for `O=C(NCC(O)CN1CCc2ccccc2C1)c1cccc(-c2cc[nH]n2)c1` (stereo not shown) [Compound 10], the IC50 is under 100 nM. Consider `NC(=O)CN1CCN(Cc2cccc(C(=O)NCC(O)CN3CCc4ccccc4C3)c2)CC1` (stereo not shown) [Compound 172], for which the IC50 is under 100 nM. Turning to `O=C(NC[C@H](O)CN1CCc2ccccc2C1)c1cc(NC2CCOC2)ncn1` (stereo partly shown) [Compound 230], the IC50 was under 100 nM. Consider `CN(CCN(C)S(C)(=O)=O)c1cc(C(=O)NC[C@H](O)CN2CCc3ccccc3C2)ccn1` [Compound 263], for which the IC50 was under 100 nM. With `O=C(NC[C@@H](O)CN1CCc2ccccc2C1)c1ccccc1` [Compound 4], the IC50 was 1000 to 10000 nM. As for `CC(=O)N1CCC(Oc2cc(C(=O)NC[C@H](O)CN3CCc4ccccc4C3)ccn2)CC1` [Compound 205], the half-maximal inhibitory concentration (IC50) was under 100 nM. In the case of `CNC(=O)CN1CCN(Cc2cccc(C(=O)NCC(O)CN3CCc4ccccc4C3)c2)CC1` (stereo not shown) [Compound 173], the concentration for half-maximal inhibition (IC50) was under 100 nM.

For the compound `O=C(NC[C@H](O)CN1CCc2ccccc2C1)c1ccnc(OC2CCNCC2)c1` [Compound 229], the half-inhibitory concentration (IC50) was under 100 nM. Take `O=C(NC[C@@H](O)CN1CCc2ccccc2C1)c1cc(NC2CCOCC2)ncn1` [Compound 185]: the half-inhibitory concentration (IC50) was under 100 nM.

For the compound `O=C(NC[C@H](O)CN1CCc2ccccc2C1)Nc1ccccc1` [Compound 5], the IC50 lay in the range of 101 to 1000 nM. The figure for `O=C(NC[C@H](O)CN1CCc2ccccc2C1)c1cncc(NC2CCN(CC(F)(F)F)CC2)c1` [Compound 300] is under 100 nM; for `O=C(NC[C@@H](O)CN1CCc2ccccc2C1)c1ccc2ncccc2c1` [Compound 218] it is under 100 nM; for `Cc1ccc(NC2COC2)cc1C(=O)NCC(O)CN1CCc2ccccc2C1` (stereo not shown) [Compound 97] it is under 100 nM. As to `O=C(NC[C@@H](O)CN1CCc2ccccc2C1)c1ccnc(NC2CCOCC2)c1` [Compound 184], the IC50 is under 100 nM. `NC(=O)CNCc1cccc(C(=O)NCC(O)CN2CCc3ccccc3C2)c1` (stereo not shown) [Compound 116]: the IC50 fell in the range of 101 to 1000 nM. As to `CN(C[C@H](O)CN1CCc2ccccc2C1)C(=O)c1cccc(NC2CCOCC2)c1` [Compound 111], the concentration for half-maximal inhibition (IC50) was under 100 nM. For the compound `O=C(NC[C@H](O)CN1CCc2ccccc2C1)c1ccccc1` [Compound 3, (S)—N-(3-(3,4-dihydroisoquinolin-2(1H)-yl)-2-hydroxypropyl)benzamide], the IC50 is under 100 nM. Consider `COCCN1CCN(Cc2cccc(C(=O)NCC(O)CN3CCc4ccccc4C3)c2)CC1` (stereo not shown) [Compound 114], for which the concentration for half-maximal inhibition (IC50) is under 100 nM. The figure for `O=C(NC[C@H](O)CN1CCc2ccccc2C1)c1ccc2cc(O)ccc2c1` [Compound 318] is under 100 nM; for `O=C(NC[C@H](O)CN1CCc2ccccc2C1)c1ccnc(NCc2cccnc2)c1` [Compound 190] it is under 100 nM; for `CC(=O)N1CC[C@@H](Nc2cccc(C(=O)NC[C@H](O)CN3CCc4ccccc4C3)c2)C1` [Compound 293] it is under 100 nM. With `O=C(NCC(O)CN1CCc2ccccc2C1)c1cccc(NCCN2CCOCC2)c1` (stereo not shown) [Compound 61], the IC50 lay in the range of 101 to 1000 nM. With `O=C(NCC(O)CN1CCc2ccccc2C1)c1ccc(OC2CCNCC2)cc1` (stereo not shown) [Compound 104], the IC50 is under 100 nM. For `O=C(NC[C@H](O)CN1CCc2ccccc2C1)c1csc2ccccc12` [Compound 248], the IC50 was under 100 nM.

In the case of `CC(=O)N1CCC(Oc2cccc(C(=O)NCC(O)CN3CCc4ccccc4C3)c2)C1` (stereo not shown) [Compound 136], the 50% inhibitory concentration (IC50) is under 100 nM. Consider `O=C(NCC(O)CN1CCc2ccccc2C1)c1ccc2ncccc2c1` (stereo not shown) [Compound 68], for which the 50% inhibitory concentration (IC50) was under 100 nM. Take `O=C(NC[C@H](O)CN1CCc2ccccc2C1)c1ccnc(OC2CCN(CC(F)(F)F)CC2)c1` [Compound 203]: the concentration for half-maximal inhibition (IC50) is under 100 nM.

Consider `CS(=O)(=O)N1CC[C@H](Nc2cccc(C(=O)NC[C@H](O)CN3CCc4ccccc4C3)c2)C1` [Compound 268], for which the half-inhibitory concentration (IC50) is under 100 nM. For `CC(=O)N1CCC(Nc2cccc(C(=O)NCC(O)CN3CCc4ccccc4C3)c2)CC1` (stereo not shown) [Compound 124], the 50% inhibitory concentration (IC50) was under 100 nM.

On to `O=C(NC[C@H](O)CN1CCc2ccccc2C1)c1cnc2ccccc2n1` [Compound 245], for which the IC50 was under 100 nM. For the compound `O=C(NC[C@H](O)CN1CCc2ccccc2C1)c1cncc(OC2CCN(CC(F)(F)F)CC2)c1` [Compound 289], the IC50 was 101 to 1000 nM.

Consider `Cc1cc2ncc(C(=O)NC[C@H](O)CN3CCc4ccccc4C3)c(C)n2n1` [Compound 275], for which the 50% inhibitory concentration (IC50) is 101 to 1000 nM. The figure for `CN(C)C(=O)CCCN1CCN(Cc2cccc(C(=O)NCC(O)CN3CCc4ccccc4C3)c2)CC1` (stereo not shown) [Compound 194] is under 100 nM; for `CN1CCC(Nc2cc(C(=O)NC[C@H](O)CN3CCc4ccccc4C3)ccn2)CC1` [Compound 223] it is under 100 nM. The figure for `O=C(NC[C@H](O)CN1CCc2ccccc2C1)c1nc2cc(Br)ccc2[nH]1` [Compound 319] is under 100 nM; for `O=C(NCC(O)CN1CCc2ccccc2C1)c1ccc(NC2CCOCC2)cc1` (stereo not shown) [Compound 66] it is under 100 nM.

Turning to `O=C(NCC(O)CN1CCc2ccccc2C1)c1ccc2c(c1)OCCN2` (stereo not shown) [Compound 88], the IC50 is 101 to 1000 nM. For the compound `O=C(NCC(O)CN1CCc2ccccc2C1)c1ccn[nH]1` (stereo not shown) [Compound 148], the IC50 was 101 to 1000 nM.

Regarding `O=C(NCC(O)CN1CCc2ccccc2C1)c1cccc(NC2CCOCC2)c1F` (stereo not shown) [Compound 79], the IC50 is under 100 nM. `O=C(NCC(O)CN1CCc2ccccc2C1)c1cccc(NC2CCN(CC(F)(F)F)C2)c1` (stereo not shown) [Compound 102]: the half-maximal inhibitory concentration (IC50) is under 100 nM.

As to `Cn1ccnc1C(=O)NCC(O)CN1CCc2ccccc2C1` (stereo not shown) [Compound 171], the concentration for half-maximal inhibition (IC50) is under 100 nM. On to `O=C(NC[C@H](O)CN1CCc2ccccc2C1)c1cc2ccccc2o1` [Compound 271], for which the IC50 is under 100 nM. The figure for `CCN1CCN(Cc2cccc(C(=O)NCC(O)CN3CCc4ccccc4C3)c2)CC1` (stereo not shown) [Compound 90] is under 100 nM; for `O=C(NCC(O)CN1CCc2ccccc2C1)c1cccc(-c2cccnc2)c1` (stereo not shown) [Compound 8, N-(3-(3,4-dihydroisoquinolin-2(1H)-yl)-2-hydroxypropyl)-3-(pyridin-3-yl)benzamide] it is under 100 nM. The figure for `O=C(NC[C@H](O)CN1CCc2ccccc2C1)c1cccc2c1OCCO2` [Compound 249] is under 100 nM; for `CN1CCC(Nc2cccc(C(=O)NCC(O)CN3CCc4ccccc4C3)c2)CC1` (stereo not shown) [Compound 123] it is under 100 nM. Take `CS(=O)(=O)N1CCC(Oc2ccc(C(=O)NCC(O)CN3CCc4ccccc4C3)cc2)CC1` (stereo not shown) [Compound 108]: the IC50 is under 100 nM.

One may read the IC50 as the concentration that inhibits the measured activity by half.
